Test results as given in ChEMBL document CHEMBL5137114, “Discovery of IHMT-MST1-58 as a Novel, Potent, and Selective MST1 Inhibitor for the Treatment of Type 1/2 Diabetes” (J Med Chem, 2022).

Experiments:
[1] = biological target: T1, Serine/threonine-protein kinase 4 (Homo sapiens, UniProt Q13043); test: Inhibition of recombinant full length N-terminal GST -tagged human MST1 expressed in baculovirus infected Sf9 insect cells using KKSRGDYMTMQIG as substrate incubated for 1 hr in presence of ATP by ADP-Glo luminescent assay
T1 sequence (Q13043 whole entry): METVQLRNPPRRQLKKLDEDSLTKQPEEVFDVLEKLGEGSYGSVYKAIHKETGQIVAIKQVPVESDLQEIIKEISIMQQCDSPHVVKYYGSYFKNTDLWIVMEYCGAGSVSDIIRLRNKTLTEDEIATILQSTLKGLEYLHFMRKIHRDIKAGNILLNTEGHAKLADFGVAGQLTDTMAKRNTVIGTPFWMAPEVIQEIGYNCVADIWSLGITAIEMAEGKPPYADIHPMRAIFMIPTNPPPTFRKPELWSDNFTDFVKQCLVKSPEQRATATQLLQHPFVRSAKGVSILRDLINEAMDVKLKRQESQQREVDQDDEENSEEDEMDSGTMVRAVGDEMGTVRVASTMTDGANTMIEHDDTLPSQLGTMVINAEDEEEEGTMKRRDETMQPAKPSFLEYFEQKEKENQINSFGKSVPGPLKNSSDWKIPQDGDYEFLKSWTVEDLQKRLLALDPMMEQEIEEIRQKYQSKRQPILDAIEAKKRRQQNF

[2] = system: RAW264.7; test: Inhibition of MST1 in mouse RAW264.7 cells assessed as reduction in H2O2-stimulated MOB1 phosphorylation at T35 residue preincubated for 2 hrs followed by H2O2 addition for 30 mins by Western blotting analysis; format: cell-based; settings: dose 0.1-10 µM, time 2.5 hrs, DDE = dose-dependent effect
[3] = system: RAW264.7; test: Inhibition of MST1 in mouse RAW264.7 cells assessed as reduction in H2O2-stimulated MST1/MST2 autophosphorylation at T183/T180 residues preincubated for 2 hrs followed by H2O2 addition for 30 mins by Western blotting analysis; format: cell-based; settings: dose 0.1-10 µM, time 2.5 hrs, DDE = dose-dependent effect

SMILES	IC50 [1] [nM]	inhibition [2]	inhibition [3]
CCNS(=O)(=O)c1ccc(Nc2ncc3c(n2)N(C)C(c2ccccc2C)C(=O)N3C)cc1 (stereo not given)	119	–	–
Cc1ccccc1C1C(=O)N(C)c2cnc(Nc3ccc(C(C)(C)C#N)cc3)nc2N1C (stereo not given)	153	–	–
Cc1ccc(F)cc1C1C(=O)N(C)c2cnc(Nc3ccc(S(N)(=O)=O)cc3)nc2N1C (stereo not given)	168	–	–
CN1C(=O)C(c2cccc(C(F)(F)F)c2)N(C)c2nc(Nc3ccc(S(N)(=O)=O)cc3)ncc21 (stereo not given)	2710	–	–
CN1C(=O)C(c2c(F)cccc2F)N(C)c2nc(Nc3ccc(S(=O)(=O)N(C)C)cc3)ncc21 (stereo not given)	181	–	–
Cc1ccccc1C1C(=O)N(C)c2cnc(Nc3ccc(S(=O)(=O)NC4CC4)cc3)nc2N1C (stereo not given)	53	–	–
CN1C(=O)C(c2ccc(F)cc2)N(C)c2nc(Nc3ccc(S(N)(=O)=O)cc3)ncc21 (stereo not given)	1770	–	–
Cc1ccccc1C1C(=O)N(C)c2cnc(Nc3ccc(S(=O)(=O)NCC4CC4)cc3)nc2N1C (stereo not given)	60	–	–
CC(C)C1C(=O)N(C)c2cnc(Nc3ccc(S(N)(=O)=O)cc3)nc2N1C (stereo not given)	254	–	–
COc1ccccc1C1C(=O)N(C)c2cnc(Nc3ccc(S(N)(=O)=O)cc3)nc2N1C (stereo not given)	251	–	–
CCC1C(=O)N(C)c2cnc(Nc3ccc(S(N)(=O)=O)cc3)nc2N1C (stereo not given)	479	–	–
CN1C(=O)C(c2cccc(Cl)c2)N(C)c2nc(Nc3ccc(S(N)(=O)=O)cc3)ncc21 (stereo not given)	989	–	–
CN1C(=O)C2(CCCCC2)N(C)c2nc(Nc3ccc(S(N)(=O)=O)cc3)ncc21	272	–	–
CN1C(=O)c2sccc2N(C)c2nc(Nc3ccc(S(N)(=O)=O)cc3)ncc21	104	Dde	Dde
COc1cccc(C2C(=O)N(C)c3cnc(Nc4ccc(S(N)(=O)=O)cc4)nc3N2C)c1 (stereo not given)	954	–	–
CN1C(=O)C(c2ccccc2Cl)N(C)c2nc(Nc3ccc(S(N)(=O)=O)cc3)ncc21 (stereo not given)	129	–	–
Cc1c(F)cccc1C1C(=O)N(C)c2cnc(Nc3ccc(S(N)(=O)=O)cc3)nc2N1C (stereo not given)	419	–	–
CNS(=O)(=O)c1ccc(Nc2ncc3c(n2)N(C)C(c2ccccc2C)C(=O)N3C)cc1 (stereo not given)	104	–	–

Second part, led by results:

IC50 [1] [nM]	SMILES	inhibition [2]	inhibition [3]
318	CNS(=O)(=O)c1ccc(Nc2ncc3c(n2)N(C)C(c2c(F)cccc2F)C(=O)N3C)cc1 (stereo not given)	–	–
383	CN1C(=O)C(c2ccccc2)N(C)c2nc(Nc3ccc(S(N)(=O)=O)cc3)ncc21 (stereo not given)	–	–
> 10000	CN1C(=O)C(Cc2ccccc2)N(C)c2nc(Nc3ccc(S(N)(=O)=O)cc3)ncc21 (stereo not given)	–	–
57	CN1C(=O)C(c2ccccc2Br)N(C)c2nc(Nc3ccc(S(N)(=O)=O)cc3)ncc21 (stereo not given)	–	–
211	CN1C(=O)C(CC2CC2)N(C)c2nc(Nc3ccc(S(N)(=O)=O)cc3)ncc21 (stereo not given)	–	–
495	CN1CC(=O)N(C)c2cnc(Nc3ccc(S(N)(=O)=O)cc3)nc21	–	–
313	CC1C(=O)N(C)c2cnc(Nc3ccc(S(N)(=O)=O)cc3)nc2N1C (stereo not given)	–	–
256	Cc1ccccc1C1C(=O)N(C)c2cnc(Nc3ccc(C4(C#N)CC4)cc3)nc2N1C (stereo not given)	–	–
219	Cc1ccccc1C1C(=O)N(C)c2cnc(Nc3ccc(S(=O)(=O)N(C)C)cc3)nc2N1C (stereo not given)	–	–
51	CCc1ccccc1C1C(=O)N(C)c2cnc(Nc3ccc(S(N)(=O)=O)cc3)nc2N1C (stereo not given)	–	–
